Laboratory results: patent publication US8877766B2, “Neuroprotective multifunctional antioxidants and their monofunctional analogs” (priority 2013, dated 2014)

Tests used:
[1] = tested on: SH-SY5Y neuroblastoma cells; test: Superoxide assay, MitoSOX Red, xanthine oxidase generated superoxide; assay type: cell-based, human; conditions: xanthine oxidase 25 mU/mL
Procedure: The ability of the HK series of multifunctional and monofunctional antioxidant compounds to specifically reduce superoxide radicals in live cells was assessed in both SH-SY5Y neuroblastoma cells and ARPE-19 retinal pigmented epithelial cells. The production of superoxide by mitochondria was visualized with fluorescence microscopy using the MitoSOX™ Red reagent (Invitrogen Life Sciences, Grand Island, N.Y.), which permeates live cells, where it selectively targets mitochondria. It is rapidly oxidized by superoxide, but not by other reactive oxygen species (ROS) and reactive nitrogen species (RNS). The oxidized product is highly fluorescent upon binding to nucleic acid. […] The cell media was then removed from each well, and the wells were washed with PBS. Compounds (HK series and JHX series and antioxidant standards (Hydroquinone (HQ), Trolox (T), Vitamin E (VE), Vitamin C (VC)) dissolved in DMSO (10 μL) were then added to each well, along with fresh media (140 μL) without serum albumin (FBS). Superoxide dismutase (SOD, 500 μg/mL, 10 μL) was used as an additional control, and cells in all groups (controls, drug treated, and SOD treated groups) were exposed to the same amounts of DMSO. After addition, the cells were incubated at 37° C. under a 5% CO2 atmosphere for 1 hr. Xanthine oxidase (XO), was then added (25 mU/mL) to generate approximately 100 μM superoxide, and culture continued for an additional hour. The media was then again removed, and the cells were washed with PBS. Finally, the cells were stained with 100 μL of the MitoSOX Red reagent (5 μM), and 2 hr after further incubation, the fluorescence of each well was measured using fluorescent microplate reader at Ex/Em=510/580 nm.

[2] = tested on: SH-SY5Y neuroblastoma cells; test: Cell viability study, MTS Cell Titer 96 Aqueous One Solution assay; conditions: 1 mM compound in 0.16% DMSO
Procedure: (§5) The in vitro cell viability studies were conducted as previously described using SH-SY5Y neuroblastoma cells (ATCC) and cultured according to ATCC procedures in 1:1 Eagles minimum essential medium with Earle's balanced salt solution and Ham's F12 (EMEM-F12) media containing (10% fetal bovine serum (FBS)) at 37° C. under a 5% CO2 atmosphere. Cell viability studies were conducted over a 24 hour period in 96-well plates using the Cell Titer 96® Aqueous One Solution Cell Proliferation Assay (MTS, Promega, Madison, Wis.) with 1 mM of each compound or clioquinol (PBT1) dissolved in 0.16% DMSO. […] This is a colorimetric method for determining the number of viable cells in proliferation or cytotoxicity assays where the One Solution contains MTS (3-(4,5-dimethylthiazol-2-yl)-5-(3-carboxymethoxyphenyl)-2-(4-sulfophenyl)-2H-tetrazolium), in the presence of phenazine methosulfate (PMS). The MTS compound is bioreduced by cells into a colored formazan product and, as measured by the amount of 490 nm absorbance, is directly proportional to the number of living cells in culture. […] The protective effect of these compounds against H2O2 and hydroxyl radical generated by the Fenton reaction were examined.

[3] = tested on: SH-SY5Y neuroblastoma cells; test: LIVE/DEAD Viability/Cytotoxicity Assay, hydroxyl radical (Fenton reagent) induced cell death; assay type: cell-based, human; conditions: 2 hours exposure to Fenton reagent
Procedure: (§1) The ability of the HK series of multifunctional antioxidant compounds to specifically protect against hydroxyl radical-induced cell death was assessed in both SH-SY5Y neuroblastoma cells and ARPE-19 retinal pigmented epithelial cells using the LIVE/DEAD® Viability/Cytotoxicity Assay (Invitrogen Life Sciences, Grand Island, N.Y.). The cells were seeded into 96-well plates and grown in standard media (1:1 EMEM-F12 media containing 10% FBS for the human SH-SY5Y neuroblastoma cells, or DMEM containing 4% FBS for the human ARPE-19 retinal pigmented epithelial cells), at 37° C. under a 5% CO2 atmosphere until 80% confluence was achieved (ca. 24 hr). The media was then removed, and the cells were washed with PBS. Compounds (HK series and JHX series or antioxidant standards (Hydroquinone (HQ), Trolox (T), Vitamin E (VE), Vitamin C (VC)) dissolved in DMSO (10 μL) were again added to the cells, along with the appropriate media without FPS. Following a 1 hr incubation at 37° C. under a 5% CO2 atmosphere, Fenton reagents (Fe^2+ and hydrogen peroxide dissolved in appropriate media without FBS to give a final concentration of 100 μM) were added to each well, and incubation continued. After 2 hr of incubation with Fenton reagent, the media was removed and the cells were washed with PBS. The cells were stained with 100 μL of the LIVE/DEAD reagent containing calcein AM (AM, 8 μM for NB) and ethidium homodimer-1 (EthD-1, 16 μM for NB) for 1 hr at 37° C. The fluorescence of each well was measured using a fluorescent microplate reader at Ex/Em=494/517 nm (Fsam for LIVE Cells) and Ex/Em=528/617 nm (Fsam for DEAD Cells). The fluorescence of control samples was also measured as follows: Fmax for LIVE Cells (The fluorescence at Ex/Em=494/517 nm in live cells samples labeled with AM only); Fmin for LIVE Cells (The fluorescence at Ex/Em=494/517 nm in live cells samples labeled with EthD-1 only); Fmax for DEAD Cells (The fluorescence at Ex/Em=528/617 nm in dead cells samples labeled with EthD-1 only); Fmin for DEAD Cells (The fluorescence at Ex/Em=528/617 nm in dead cells samples labeled with AM only); Blank 494/517 (The fluorescence at Ex/Em=494/517 nm without dye and cells); Blank 528/617 (The fluorescence at Ex/Em=528/617 nm without dye and cells). For the dead cells control, the cells were incubated with 70% of ethanol for 30 min at 37° C. The percentage of live cells was calculated from the fluorescence readings using the equation
(§2) [formula] The percentage of dead cells was calculated from the fluorescence readings using the equation: […]

[4] = tested on: ARPE-19 retinal pigmented epithelial cells; test: as above; assay type: cell-based, human; conditions: ARPE-19, 2 hours exposure to Fenton reagent
Procedure: as §1, §2

[5] = tested on: SH-SY5Y neuroblastoma cells; test: Protective effect against H2O2 and Fenton-generated hydroxyl radical, MTS cell viability; assay type: cell-based, human; conditions: versus DMSO control
Procedure: as §5

[6] = tested on: SH-SY5Y neuroblastoma cells; test: Mitochondrial viability/toxicity, rhodamine 123 staining with or without MnCl2; assay type: cell-based, human; conditions: 1 mM drug, 1 mM MnCl2
Procedure: The laser dye rhodamine 123 is shown to be a specific probe for the localization of mitochondria in living cells. Because of its selectivity for mitochondria, this stain can be used to probe alterations in mitochondria induced by drugs. Therefore, studies were conducted to determine whether MFAOs can adversely alter mitochondrial function through their ability chelate transition metals.
Human SH-SY5Y neuroblastoma cells were seeded into 8-well microscope plates (BD Falcon, 800μ-slides), and the cells were incubated in EMEM-F12 media containing 10% FBS at 37° C. under a 5% CO2 atmosphere. Once the cells were approximately 80% confluent in each well, the media was removed and the cells were washed with PBS. The cells were then pre-incubated for 1 hour at 37° C. under a 5% CO2 atmosphere with 200 μL of HBSS medium without FBS containing drug JHX-1, -4, -5, -8, HK-2, -4, -9, -11, or Clioquinol dissolved in DMSO, so that final drug concentrations of 1 mM in 4% DMSO were achieved. Then MnCl2 was added to the appropriate cells groups to give a final concentration of 1 mM, and the groups were cultured for an additional 2 hours. After the […] exposure to manganese, the media was removed and the cells were washed with PBS. The cells were then stained with 100 μL of the fluorescent dye rhodamine 123 (Rh123) (20 μM) and Hoechst 33342 (8 μM) per well at 37° C., 5% CO2 for 30 min. […]

ARPE-19 RPE cells = test: as above; assay type: cell-based, human; conditions: ARPE-19, 1 mM drug, 1 mM MnCl2
[7] = tested on: SH-SY5Y neuroblastoma cells; test: Zinquin analysis of cellular labile zinc after exposure to Aβ1-42/Zn complex; assay type: cell-based, human; conditions: 10 μM drug
Procedure: (§3) The ability of MFAOs to release zinc from amyloid beta/zinc complex was investigated using […] from American Peptide Company, Inc. (Vista, Calif.). The Aβ1-42/Zn complex was prepared as follow. ZnSO4 solution (200 μM) and Aβ1-42 (200 μM) were mixed together and incubated at 37° C. After 48 hr incubation, the mixture was centrifuged at 14000×g, 3 min to pellet the aggregated Aβ1-42. The aggregated Aβ1-42 was then resuspended in water or 200 μM of drugs. The complex was diluted with Hank's Balanced Saline Solution (HBSS) to give a final 10 μM concentration for each component. This complex was then used in the following studies employing human SH-SY5Y neuroblastoma and ARPE-19 pigmented epithelial cells. The studies were repeated 2-4 times.
(§4) Human SH-SY5Y neuroblastoma cells were seeded into 8-well microscope plates (BD Falcon, 800μ-slides), and the cells were incubated in EMEM-F12 media containing 10% FBS at 37° C. under a 5% CO2 atmosphere. Once the cells were approximately 80% confluent in each well, the media was removed, and the cells were washed with phosphate buffered saline (PBS). […] The zinquin fluorescence was then measured in the fixed cells by confocal fluorescence microscopy using a DAPI (4′,6-diamidino-2-phenylindole) DAPI filter set to assess the cellular compartmentalization of zinc. […]

[8] = tested on: ARPE-19 retinal pigmented epithelial cells; test: as above; assay type: cell-based, human; conditions: ARPE-19, 10 μM drug
Procedure: as §3, §4

Q: For O=C1CCC(=O)N1c1ncccn1 [HK-1, 1-(2-pyrimidyl)pyrrolidine-2,5-dione], which “reduction of superoxide radical” value [1] is on record?
A: did not

Q: Which “decrease in 24 hr cell viability compared to DMSO treated cells” value (shortened to “decrease in 24 hr cell viability”) [2] does the source give for O=C1CCC(=O)N1c1ncc(O)cn1 [HK-2, 1-(5-hydroxy-2-pyrimidyl)pyrrolidine-2,5-dione] here?
A: approximately 20%

Q: Which “reduction of superoxide radical” value [1] does the source give for COc1cc(OC)nc(N2C(=O)CCC2=O)n1 [HK-3, 1-(4,6-dimethoxy-2-pyrimidyl)pyrrolidine-2,5-dione] here?
A: did not

Q: For O=C1CCCC(=O)N1c1ncccn1 [HK-5, 1-(2-pyrimidyl)piperidine-2,6-dione], which “reduction of superoxide radical” value [1] is on record?
A: did not

Q: With O=C1CCCC(=O)N1c1ncc(O)cn1 [HK-6, 1-(5-hydroxy-2-pyrimidyl)piperidine-2,6-dione] as the compound, how does the “decrease in 24 hr cell viability” value [2] read?
A: approximately 20%

Q: For COc1cc(OC)nc(N2C(=O)CCCC2=O)n1 [HK-7, 1-(4,6-dimethoxy-2-pyrimidyl)piperidine-2,6-dione], which “reduction of superoxide radical” value [1] is on record?
A: did not

Q: COc1nc(N2C(=O)CCCC2=O)nc(OC)c1O [HK-8, 1-(4,6-dimethoxy-5-hydroxy-2-pyrimidyl)piperidine-2,6-dione] was tested. Which “decrease in 24 hr cell viability” value [2] did it give?
A: 30%

Q: With c1cnc(N2CCCC2)nc1 [HK-9, 2-(pyrrolidine-1-yl)pyrimidine] as the compound, how does the “reduction of superoxide radical” value [1] read?
A: no effect

Q: What about the “protection against hydroxyl radicals (live/dead cells)” value [3] of the same compound?
A: no effect

Q: What does the source list for Oc1cnc(N2CCCC2)nc1 [HK-10, 5-hydroxy-2-(pyrrolidine-1-yl)pyrimidine]?
A: reduction of superoxide radical [1]: demonstrated protection; protection against hydroxyl radical (live/dead cells) [4]: dose-dependent protection

Q: COc1cc(OC)nc(N2CCCC2)n1 [HK-11, 4,6-dimethoxy-2-(pyrrolidine-1-yl)pyrimidine] was tested. Which “reduction of superoxide radical” value [1] did it give?
A: no effect

Q: And the “protection against hydroxyl radicals (live/dead cells)” value [3]?
A: no effect

Q: How did the “reduction of superoxide radical” value [1] turn out when COc1nc(N2CCCC2)nc(OC)c1O [HK-12, 5-hydroxy-4,6-dimethoxy-2-(pyrrolidine-1-yl)pyrimidine] was run?
A: demonstrated protection

Q: And the “protection against hydroxyl radical (live/dead cells)” value [4]?
A: dose-dependent protection

Q: With Oc1cnc(N2CCCCC2)nc1 [HK-14, 5-hydroxy-2-(piperidine-1-yl)pyrimidine] as the compound, how does the “reduction of superoxide radical” value [1] read?
A: demonstrated protection

Q: And the “protection against hydroxyl radical (live/dead cells)” value [4]?
A: dose-dependent protection

Q: Which results are given for COc1nc(N2CCCCC2)nc(OC)c1O [HK-16, 5-hydroxy-4,6-dimethoxy-2-(piperidine-1-yl)pyrimidine]?
A: reduction of superoxide radical [1]: demonstrated protection; protection against hydroxyl radical (live/dead cells) [4]: dose-dependent protection

Q: Which “decrease in 24 hr cell viability” value [2] does the source give for Cc1c(C)c2c(c(C)c1O)CCC(C)(C(=O)O)O2 (centres unmarked) [Trolox, reference compound] here?
A: approximately 20%

Q: With Oc1c(I)cc(Cl)c2cccnc12 [clioquinol] as the compound, how does the “cell viability in the Fenton reaction” value [5] read?
A: lower than DMSO control

Q: And the “loss of rhodamine 123 staining after MnCl2” value [6]?
A: not observed

Q: What about the “loss of rhodamine 123 staining after MnCl2” value (ARPE-19 RPE cells) of the same compound?
A: not observed

Q: What about the “labile zinc (zinquin staining) in presence of aggregated Aβ1-42/Zn complex” value [7] of the same compound?
A: maintain labile zinc levels

Q: And the “labile zinc (zinquin staining) in presence of aggregated Aβ1-42/Zn complex” value [8]?
A: maintain labile zinc levels

Q: And the “decrease in 24 hr cell viability” value [2]?
A: 50%
